How the values were obtained:
[1] = target: T1, luminal portion of LAMP1 (Homo sapiens, UniProt P11279); assay: Surface plasmon resonance (SPR); format: binding
T1 sequence (P11279 29-382 limits assumed): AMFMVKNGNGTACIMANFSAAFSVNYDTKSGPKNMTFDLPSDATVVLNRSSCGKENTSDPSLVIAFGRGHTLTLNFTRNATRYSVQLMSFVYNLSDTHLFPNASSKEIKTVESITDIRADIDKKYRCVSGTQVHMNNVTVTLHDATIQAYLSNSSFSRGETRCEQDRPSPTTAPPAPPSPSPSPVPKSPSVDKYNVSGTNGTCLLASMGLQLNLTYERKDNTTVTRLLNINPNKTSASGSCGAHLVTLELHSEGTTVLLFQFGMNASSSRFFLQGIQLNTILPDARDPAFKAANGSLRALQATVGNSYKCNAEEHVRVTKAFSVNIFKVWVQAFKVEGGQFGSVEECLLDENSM
Excerpt: FIGS. 5A-5E include images of experiments showing hetero-assembly forms around Compound 1 and not around endogenous molecules as shown by the liquid crystals formed in experiments 1-3 (5A); image of STRING network of targets at the interactome of Compound 1 (5B); cellular thermal shift assay (CETSA) of different targets of the Compound 1 hetero-assembly (5C); surface plasmon resonance sensograms of binding of Compound 1 to LAMP1 (5D); sensogram experiments consisting of association and dissociation at the indicated concentration ranges and pH values were then conducted.
The inventors have investigated the mechanism of action of 144DG11. To that end, the inventors first decided to determine its molecular target. Nematic protein organization technique (NPOT, Inoviem, Ltd.) was applied to homogenates of APBD patient fibroblasts. The NPOT analysis has discovered protein hetero assemblies uniquely generated around 144DG11 only when it was added to the cell homogenates (FIG. 5A). The next step in this analysis has identified the interactome of protein targets interacting with 144DG11 in APBD patients' fibroblasts. […] Moreover, the inventors have tested by cellular thermal shift assay the specific interaction of 144DG11 with 6 of the 8 targets discovered by NPOT. […] This finding relates to a novel pathogenic hypothesis connecting cellular glycogen overload with glycogen trafficking to lysosomes via Starch Binding Domain containing Protein 1. To validate 144DG11's interaction with LAMP1, the inventors have used surface plasmon resonance (SPR) technology. […] The inventors hypothesized that this slow rate of association could be explained by inhibited diffusion of 144DG11 due to the bulky oligosaccharides at the glycosylation sites. Therefore, the inventors have repeated the SPR experiments with a chemically deglycosylated luminal LAMP1 domain. […] The inventors have further investigated 144DG11 binding to LAMP1 by structure-based computational docking. In the search for a putative binding site for Compound 1 in LAMP1, the inventors have analyzed the N- and C-terminal subdomains of its luminal domain (residues A29-R195 and S217-D378, respectively), which have a similar topology. These domains were modeled and computationally docked against decoys to Compound 1 at the intralysosomal pH 5 based on the known crystal structure of mouse LAMP1 C-terminal domain (PDB ID 5gv0). […] However, they might still affect Compound 1 diffusion.

[2] = tested on: APBD cells; assay: Proteomics (nano LC-MS/MS, LFQ); format: cell-based, human
Procedure: Sample preparation for MS analysis. Cell lysates in RIPA buffer containing protease inhibitors were clarified by centrifugation and […] of protein was used for protein precipitation by the chloroform/methanol method. The precipitated proteins were solubilized in 100 μl of 8 M urea, 10 mM DTT, 25 mM Tris-HCl pH 8.0 and incubated for 30 min at 22 ° C. Iodoacetamide (55 mM) was added, and samples were incubated for 30 min (22 ° C., in the dark), followed by addition of DTT (10 mM). Fifty μl of the samples was transferred into a new tube, diluted by the addition of 7 volumes of 25 mM Tris-HCl pH 8.0 and sequencing-grade modified Trypsin (Promega Corp., Madison, WI) was added (0.35 μg/sample) followed by incubation overnight at 37° C. with gentle agitation. The samples were acidified by addition of 0.2% formic acid and desalted on C18 home-made Stage tips. Peptide concentration was determined by Absorbance at 280 nm and 0.75 μg of peptides were injected into the mass spectrometer.
Nano LC-MS/MS analysis. MS analysis was performed using a Q Exactive-HF mass spectrometer (Thermo Fisher Scientific, Waltham, MA USA) coupled on-line to a nanoflow UHPLC instrument, Ultimate 3000 Dionex (Thermo Fisher Scientific, Waltham, MA USA). Peptides dissolved in 0.1% formic acid were separated without a trap column over a 120 min acetonitrile gradient run at a flow rate of 0.3 μl/min on a reverse phase 25-cm-long C18 column (75 μm ID, 2 μm, 100 Å, Thermo PepMapRSLC). The instrument settings were as previously described. Survey scans (300-1,650 m/z, target value 3E6 charges, maximum ion injection time 20 ms) were acquired and followed by higher energy collisional dissociation (HCD)-based fragmentation (normalized collision energy 27). A resolution of 60,000 was used for survey scans and up to 15 dynamically chosen most abundant precursor ions, with “peptide preferable” profile were fragmented (isolation window 1.6 m/z). The MS/MS scans were acquired at a resolution of 15,000 (target value 1E5 charges, maximum ion injection times 25 ms). Dynamic exclusion was 20 sec. Data were acquired using Xcalibur software (Thermo Scientific). To avoid a carryover, the column was washed with 80% acetonitrile, 0.1% formic acid for 25 min between samples.
MS data analysis. Mass spectra data were processed using the MaxQuant computational platform, version 1.6.14.0. Peak lists were searched against the Uniprot human FASTA sequence database from May 19, 2020, containing 49,974 entries. […] Relative protein quantification in MaxQuant was performed using the label-free quantification (LFQ) algorithm. […]
To validate the imaging-based analysis of the cell features modulated by the diseased state and by Compound 1, the inventors analyzed the effect of the disease and the treatment on protein expression. […]

Structure (SMILES): COCCN(Cc1sccc1C)C(=O)c1cc(C)nc(O)c1 [Compound 1]
- binding to LAMP1 ([1]; cytoplasmic pH 7): not at the cytoplasmic pH 7
- binding to LAMP1 ([1]; intermediate pH 6): some binding starting
- binding to LAMP1 ([1]; lysosomal pH 4.5-5): specific and dose-dependent binding
- kon (rate of association) ([1]; pH 4.5): slow
- Kd ([1]; read-out: apparent KD): 6.3 mM
- number of proteins down-modulated by APBD and up-modulated by compound [2]: 49
- number of proteins up-modulated by APBD and down-modulated by compound [2]: 39
- share of all proteins modified ([2]; glycogen overladen (48 h starvation/24 h Gluc)): 1.3%
- share of all proteins modified ([2]; starved (48 h starvation)): 1.7%

Source: patent publication US20240139167A1, “LYSOSOME-ASSOCIATED MEMBRANE PROTEIN TARGETING COMPOUNDS AND USES THEREOF” (HADASIT MEDICAL RESEARCH SERVICES AND DEVELOPMENT LTD., priority 2021, published 2024)
